Tests used:
Assay in all cases: relative viability (nuclei count vs DMSO), 5 days (fraction); higher = more cells survive
A549 = test system: A549
Summary of the method: (§1)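 The day after seeding in 1536-well plates, lung cancer cell lines were treated by pin tool with a single drug, or with a fixed anchor-drug dose together with five library-drug doses (not always all listed) in √10 steps. After 5 days, a combined fix-and-stain solution (final 0.05% Triton X-100, 1% formaldehyde, 1 ug/ml Hoechst) was added. Nuclei counted on 4× images gave relative viability as treated counts over vehicle counts, reported as the median of duplicate plates.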

NCI-H1648 = test system: NCI-H1648
Summary of the method: as §1

NCI-H1651 = test system: NCI-H1651
Summary of the method: as §1

NCI-H1944 = test system: NCI-H1944
Summary of the method: as §1

NCI-H520 = test system: NCI-H520
Summary of the method: as §1

NCI-H650 = test system: NCI-H650
Summary of the method: as §1

NCI-H838 = test system: NCI-H838
Summary of the method: as §1

PC-3 [JPC-3] = test system: PC-3 [JPC-3]
Summary of the method: as §1

RERF-LC-KJ = test system: RERF-LC-KJ
Summary of the method: as §1

CC(=O)O[C@@]12CO[C@@H]1C[C@H](O)[C@@]1(C)C(=O)[C@H](O)C3=C(C)[C@@H](OC(=O)[C@H](O)[C@@H](NC(=O)OC(C)(C)C)c4ccccc4)C[C@@](O)([C@@H](OC(=O)c4ccccc4)[C@H]21)C3(C)C [Docetaxel] + Nc1ncn([C@H]2C[C@H](O)[C@@H](CO)O2)c(=O)n1 [Decitabine] (partner 2 µM)
relative viability (A549; first compound 0.0002 µM): 0.297
relative viability (A549; first compound 0.000632 µM): 0.18
relative viability (A549; first compound 0.002 µM): 0.0587
relative viability (A549; first compound 0.006325 µM): 0.0522
relative viability (A549; first compound 0.02 µM): 0.0318
relative viability (NCI-H1648; first compound 0.0002 µM): 0.452
relative viability (NCI-H1648; first compound 0.000632 µM): 0.487
relative viability (NCI-H1648; first compound 0.002 µM): 0.339
relative viability (NCI-H1648; first compound 0.006325 µM): 0.216
relative viability (NCI-H1648; first compound 0.02 µM): 0.231
relative viability (NCI-H1651; first compound 0.0002 µM): 0.458
relative viability (NCI-H1651; first compound 0.000632 µM): 0.547
relative viability (NCI-H1651; first compound 0.002 µM): 0.299
relative viability (NCI-H1651; first compound 0.006325 µM): 0.173
relative viability (NCI-H1944; first compound 0.0002 µM): 0.45
relative viability (NCI-H1944; first compound 0.000632 µM): 0.461
relative viability (NCI-H1944; first compound 0.002 µM): 0.406
relative viability (NCI-H1944; first compound 0.006325 µM): 0.291
relative viability (NCI-H1944; first compound 0.02 µM): 0.139
relative viability (NCI-H520; first compound 0.0002 µM): 0.454
relative viability (NCI-H520; first compound 0.000632 µM): 0.465
relative viability (NCI-H520; first compound 0.002 µM): 0.333
relative viability (NCI-H520; first compound 0.006325 µM): 0.249
relative viability (NCI-H650; first compound 0.0002 µM): 0.299
relative viability (NCI-H650; first compound 0.000632 µM): 0.307
relative viability (NCI-H650; first compound 0.002 µM): 0.274
relative viability (NCI-H650; first compound 0.006325 µM): 0.278
relative viability (NCI-H650; first compound 0.02 µM): 0.127
relative viability (NCI-H838; first compound 0.0002 µM): 0.446
relative viability (NCI-H838; first compound 0.000632 µM): 0.496
relative viability (NCI-H838; first compound 0.002 µM): 0.276
relative viability (NCI-H838; first compound 0.006325 µM): 0.181
relative viability (NCI-H838; first compound 0.02 µM): 0.159
relative viability (PC-3 [JPC-3]; first compound 0.0002 µM): 0.816
relative viability (PC-3 [JPC-3]; first compound 0.000632 µM): 0.849
relative viability (PC-3 [JPC-3]; first compound 0.002 µM): 0.666
relative viability (PC-3 [JPC-3]; first compound 0.006325 µM): 0.5
relative viability (PC-3 [JPC-3]; first compound 0.02 µM): 0.294
relative viability (RERF-LC-KJ; first compound 0.0002 µM): 0.716
relative viability (RERF-LC-KJ; first compound 0.000632 µM): 0.542
relative viability (RERF-LC-KJ; first compound 0.002 µM): 0.232
relative viability (RERF-LC-KJ; first compound 0.02 µM): 0.146
